From patent publication US20050215635A1, “Diarylheptanoid compounds and uses thereof” (priority 2004, published 2005)

What was measured:
[1] = test system: Du-145 prostate tumor cells; test: MTT-microculture tetrazolium cell viability assay / induction of apoptosis in Du-145; type: cell-based; settings: for IC50: Homo sapiens, Du-145 prostate tumor cells, MTT, 72 hours incubation, drug concentration giving 50% inhibition of growth, read-out: IC50 (μM), Effects of Diarylheptanoids on Inducing Apoptosis in DU-145 Cancer Cell Line; for activity in bioassay: inducing apoptosis in Du-145 cancer cell line (in words): bioassay-directed fractionation of Alpinia officinarum
Experimental: The rhizomes of Alpinia officinarum were purchased from Nuherbs Co. (Oakland, Calif.). Du-145 prostate tumor cells were obtained from the American Type Culture Collection (ATCC). Cells were maintained at 37° C. in an atmosphere of 5% CO2 and grown in Roswell Park Memorial Institute (RPMI) media 1640 (GIBCO/BRL) with 10% fetal bovine serum and with 5% penicillin and streptomycin.
The powdered roots of Alpinia officinarum were extracted with methanol and concentrated under vacuum using rotary evaporation. The dried residue was then partitioned with hexanes, ethyl acetate and 1-butanol successively. The three extracts were subjected to bioassays.
The dried ethyl acetate extract was then chromatographed on a normal phase silica gel column (2.5×30 cm) to perform bioassay-directed fractionation. The extract was first dissolved in methanol and loaded onto the column packing material. The prepared extract was then placed on top of the column and elution was performed using a solvent mixture of chloroform/methanol with an increasing amount of methanol (30:1, 20:1, 10:1, 5:1, 0:100; each 1000 mL). Successive fractions were collected and tested for biological activity. […] This fraction was then rechromatographed on a semipreparative Zorbax Rx-C18 reversed phase HPLC column (9.4 mm×240 mm, 5 μm) purchased from MacMod Analytical (Chadds Ford, Pa.). Compounds were eluted by an isocratic solvent system: 55% A, water with 0.05% formic acid (FA); 45% B, ACN (v/v) at a flow rate of 4 mL/min. The wavelength monitored was 205 nm. Successive fractions (1-3) were collected and sent for biological testing again.
Cellular growth in the presence or absence of experimental agents was determined using the modified method as previously described MTT-microculture tetrazolium assay (World Health Organization (ED.), Medicinal Plants in China, WHO Regional Publications, 1989, 21). Briefly, rapidly growing cells were harvested, counted, and inoculated at the appropriate concentrations (100 μL volume) into 96-well micro-titer plates using a multichannel pipet. After 24 hours, AO-1 to AO-5 were applied in different concentrations to triplicate culture wells, and cultures were incubated for 72 hours at 37° C. MTT ( Sigma, St. Louis, Mo.) was prepared at 2 mg/ml in Phosphate buffered saline (PBS) and 50 μL were added to microculture wells. After 4 hour incubation at 37° C., […] were removed from each well, and 150 μL of 100% DMSO were added to solubilize the MTT-formazan product. After thorough mixing with a mechanical plate mixer, absorbence was measured at 570 nm using a Dynatech microplate reader. […] This assay is based on the reduction of MTT tetrazolium salt to a formazan product by the metabolic activity of live cells and which was measured in a multiwell scanning spectrophotometer. Cell line growth and growth inhibition were expressed in terms of mean absorbance units and following the substraction of mean background absorbance.

[2] = Radical-scavenging activity by DPPH; settings: for IC50: DPPH 63.4 μM in methanol, absorbance at 515 nm, steady state, read-out: IC50 (μM) of Diarylheptanoids in Scavenging DPPH Free Radicals; for free radical scavenging, DPPH data (in words): DPPH assay
Text: In this example, the 2,2-diphenyl-1-picrylhydrazyl (DPPH) method was used to explore the capacity of five isolated compounds of the invention to act as free radical scavengers. The DPPH assay has been extensively used to test the free radical scavenging ability of various chemicals (Brand-williams, W. et al., Wiss. Technol. 1995, 28, 25-30; Dinis, T. C. et al., Arch. Biochem. Biophys. 1994, 315, 161-169.)
This method was adapted from that of Brand-Williams, et al. (Brand-williams, W.; Cuvelier, M. E.; Berset, C. Lebensm. Wiss. Technol. 1995, 28, 25-30.). At least seven different concentrations were prepared for each purified compound. 25 μl pure compound solution and 975 μL DPPH solution (63.4 μM) were mixed together and left in the dark for 30 min. Each sample was triplicated and the values were averaged. The absorbance of the samples was measured at 515 nm against methanol solution without DPPH as the blank reference. The absorbance was measured every 30 min until the reaction reached a plateau. The reaction kinetics were then plotted using the above data and the percentage of DPPH remaining at the steady state was obtained. IC50 values were determined by extrapolation from linear regression analysis.
DPPH, 2,2-Diphenyl-1-picrylhydrazyl (DPPH.), is a stable radical in methanol solution. In its radical form, DPPH. absorbs at 515 nm, but the absorption ceases upon reduction by an antioxidant (AH) or a radical species (R.) (Brand-williams, W.; Cuvelier, M. E.; Berset, C. Lebensm. Wiss. Technol. 1995, 28, 25-30.). The concentration of tested chemicals needed to decrease the initial DPPH. concentration by 50% (IC50) is a parameter widely used to measure the antioxidant potential (Kanner, J.; Frankel, E.; German, B.; Kinsella, J. e. J. Agric. Food Chem. 1994, 42, 64-69, Vinson, J. A.; Dabbagh, Y. A.; Serry, M. M. J. Agric. Food Chem. 1995a, 43,2800-2802.). The lower the IC50, the higher the free radical scavenging power.

Row | SMILES | IC50 [1] [µM] | activity in bioassay: inducing apoptosis in Du-145 cancer cell line (in words) [1] | IC50 [2] [µM] | free radical scavenging, DPPH data (in words) [2]
1 | COc1cc(CCC(CC(=O)CCc2ccccc2)OC)ccc1O (stereo not shown) [AO-2, 5-methoxy-7-(4″-hydroxy-3″methoxyphenyl)-1-phenyl-3-heptanone] | 88 | some activity | 12.7 | very good free radical scavengers
2 | O=C(/C=C/CCc1ccccc1)CCc1ccccc1 [AO-5, 1,7-diphenylhept-4-en-3-one] | 32 | – | > 5000 | –
3 | COc1cc(CCC(O)CC(=O)CCc2ccccc2)ccc1O (stereo not shown) [AO-1, 5-Hydroxy-7-(4″-hydroxy-3″methoxyphenyl)-1-phenyl-3-heptanone] | 100 | biological activity to some level | 11.4 | very good free radical scavengers
4 | O=C(/C=C/CCc1ccc(O)cc1)CCc1ccccc1 [AO-3, 7-(4″-hydroxyphenyl)-1-phenyl-hept-4-en-3-one] | 20 | some activity | > 1000 | –
